Like-named read-outs stand apart in the source and are kept apart here.
Target: T1, recombinant human NaV1.8 stably transfected HEK cells (Homo sapiens, UniProt Q9Y5Y9)
T1 construct: expressed in transfected cells; host or cells: HEK cells, stably transfected
Assay: Compound profiling on NaV1.8, human NaV1.8 cell line, SyncroPatch384PE automated patch clamp assay (Example 102, first set of compounds, Table 16)
Type: cell-based
Conditions: human NaV1.8 HEK cells, Table 16 (first set of compounds)
In short: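 IC50s come from two read-outs: resting-state block (P1, 10 mV step from −120 mV) and inactivated-state block (P2, after 10 s at −40 mV), scaled between DMSO and 250 μM tetracaine. Compounds (20–0.001 μM final, 1:3 steps) were applied for 5 min, 15 s sweeps. Cells kept at 30 °C the day before.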

[1] = inactivated state block (P2 measurement), read-out: P2IC50
[2] = resting state block (P1 measurement), read-out: P1IC50

T1 sequence (Q9Y5Y9 whole entry): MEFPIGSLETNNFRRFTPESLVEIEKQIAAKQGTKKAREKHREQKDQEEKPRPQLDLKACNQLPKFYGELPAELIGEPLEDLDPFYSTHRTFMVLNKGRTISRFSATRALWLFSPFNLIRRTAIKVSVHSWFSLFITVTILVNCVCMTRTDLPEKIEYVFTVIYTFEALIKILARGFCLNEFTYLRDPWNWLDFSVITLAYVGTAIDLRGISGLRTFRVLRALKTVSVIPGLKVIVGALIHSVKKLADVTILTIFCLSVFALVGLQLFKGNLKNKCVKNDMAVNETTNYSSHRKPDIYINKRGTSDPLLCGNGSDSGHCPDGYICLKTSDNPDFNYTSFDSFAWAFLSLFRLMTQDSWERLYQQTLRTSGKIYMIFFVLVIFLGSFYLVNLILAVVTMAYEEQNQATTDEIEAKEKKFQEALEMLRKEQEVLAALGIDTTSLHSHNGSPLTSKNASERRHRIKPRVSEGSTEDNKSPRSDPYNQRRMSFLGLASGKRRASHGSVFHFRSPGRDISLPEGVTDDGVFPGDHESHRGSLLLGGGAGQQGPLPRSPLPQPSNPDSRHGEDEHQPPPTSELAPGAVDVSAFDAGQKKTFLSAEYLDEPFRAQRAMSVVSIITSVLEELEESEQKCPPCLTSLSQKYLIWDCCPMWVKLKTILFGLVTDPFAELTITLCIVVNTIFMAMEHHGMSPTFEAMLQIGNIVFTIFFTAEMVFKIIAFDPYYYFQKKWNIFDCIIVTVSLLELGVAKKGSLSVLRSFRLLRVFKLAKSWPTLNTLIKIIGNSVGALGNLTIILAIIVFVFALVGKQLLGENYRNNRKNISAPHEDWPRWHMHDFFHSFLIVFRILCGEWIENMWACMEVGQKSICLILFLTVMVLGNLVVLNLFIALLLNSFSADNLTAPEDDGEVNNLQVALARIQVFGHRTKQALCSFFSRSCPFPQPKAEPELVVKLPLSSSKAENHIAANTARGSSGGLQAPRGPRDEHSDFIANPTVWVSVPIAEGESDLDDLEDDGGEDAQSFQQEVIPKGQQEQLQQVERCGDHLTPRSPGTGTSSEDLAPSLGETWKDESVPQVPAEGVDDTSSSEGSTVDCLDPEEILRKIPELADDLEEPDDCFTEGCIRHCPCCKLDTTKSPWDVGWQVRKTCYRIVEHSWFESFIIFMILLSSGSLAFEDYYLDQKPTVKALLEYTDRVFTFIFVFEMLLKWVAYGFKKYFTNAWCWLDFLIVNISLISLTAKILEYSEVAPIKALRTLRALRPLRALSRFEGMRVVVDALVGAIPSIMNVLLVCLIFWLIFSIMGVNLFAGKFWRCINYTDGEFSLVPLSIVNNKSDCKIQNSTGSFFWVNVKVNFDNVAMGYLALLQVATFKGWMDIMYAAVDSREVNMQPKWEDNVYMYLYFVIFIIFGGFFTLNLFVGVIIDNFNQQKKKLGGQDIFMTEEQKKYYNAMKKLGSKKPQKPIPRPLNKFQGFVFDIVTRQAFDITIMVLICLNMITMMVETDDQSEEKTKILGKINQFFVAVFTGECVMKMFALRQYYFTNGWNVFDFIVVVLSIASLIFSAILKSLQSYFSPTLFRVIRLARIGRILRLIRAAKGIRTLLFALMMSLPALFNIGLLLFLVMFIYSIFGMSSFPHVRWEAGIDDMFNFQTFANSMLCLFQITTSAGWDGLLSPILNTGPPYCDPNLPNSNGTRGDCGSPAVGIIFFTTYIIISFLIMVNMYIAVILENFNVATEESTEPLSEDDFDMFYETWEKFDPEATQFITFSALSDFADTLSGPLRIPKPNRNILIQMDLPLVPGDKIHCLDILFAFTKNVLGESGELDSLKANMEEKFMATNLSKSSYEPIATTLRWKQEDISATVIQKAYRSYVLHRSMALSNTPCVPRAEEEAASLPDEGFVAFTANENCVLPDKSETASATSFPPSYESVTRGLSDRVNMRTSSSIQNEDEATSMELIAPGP

| IC50 [1] [µM] | IC50 [2] [µM] | Compound |
| --- | --- | --- |
| ≤ 0.02 | ≤ 0.02 | COc1ccc(Oc2nnc(C(F)(F)F)c(C)c2C(=O)Nc2cccc(S(C)(=N)=O)c2)c(C)c1F (single isomer, unassigned) [Compound 1505, 3-(3-fluoro-4-methoxy-2-methylphenoxy)-N-{3-[imino(methyl)oxo-λ^6-sulfanyl]phenyl}-5-methyl-6-(trifluoromethyl)pyridazine-4-carboxamide] |
| ≤ 0.02 | ≤ 0.02 | COc1nc(C)ccc1Oc1ncc(C(F)(F)F)cc1C(=O)Nc1cccc(S(C)(=O)=O)c1 [Compound 1608] |
| ≤ 0.02 | ≤ 0.02 | COc1cc(C#N)ccc1Oc1ncc(C(F)(F)F)cc1C(=O)Nc1cccc(S(C)(=N)=O)c1 (stereo not shown) [Compound 1562, 2-(4-cyano-2-methoxyphenoxy)-N-{3-[imino(methyl)oxo-λ^6-sulfanyl]phenyl}-5-(trifluoromethyl)pyridine-3-carboxamide] |
| ≤ 0.02 | ≤ 0.02 | COc1c(Oc2nnc(C(F)(F)F)c(C)c2C(=O)Nc2ccn3nnnc3c2)ccc(F)c1F [Compound 1551, 3-(3,4-difluoro-2-methoxy-phenoxy)-5-methyl-N-(tetrazolo[1,5-a]pyridin-7-yl)-6-(trifluoromethyl)pyridazine-4-carboxamide] |
|  | ≤ 0.02 | COc1c(Oc2nnc(C(F)(F)F)c(C)c2C(=O)Nc2cccc(S(C)(=N)=O)c2)ccc(F)c1F (single isomer, unassigned) [Compound 1474, 3-(3,4-difluoro-2-methoxy-phenoxy)-5-methyl-N-[3-(methylsulfonimidoyl)phenyl]-6-(trifluoromethyl)pyridazine-4-carboxamide] |
| 0.02 to 0.04 | 0.02 to 0.04 | Cc1cc(F)ccc1Oc1nnc(C(F)(F)F)c(C2CC2)c1C(=O)Nc1cccc([S@@](C)(=N)=O)c1 [Compound 1519, (S)-5-cyclopropyl-3-(4-fluoro-2-methylphenoxy)-N-(3-(S-methylsulfonimidoyl)phenyl)-6-(trifluoromethyl)pyridazine-4-carboxamide] |
| 0.2 to 0.5 | 0.2 to 0.5 | COc1cc(C#N)ccc1Oc1nnc(-c2cnc(C)nc2)c(C)c1C(=O)Nc1cccc(S(C)(=N)=O)c1 (stereo not shown) [Compound 1457, 3-(4-cyano-2-methoxy-phenoxy)-5-methyl-6-(2-methylpyrimidin-5-yl)-N-[3-(methylsulfonimidoyl)phenyl]pyridazine-4-carboxamide] |
| 0.2 to 0.5 | 0.2 to 0.5 | COc1cc(C#N)ccc1Oc1nnc(C(F)(F)F)c(C)c1C(=O)Nc1cccc(C(=O)NC2CCCC2C#N)c1 (stereo not shown) [Compound 1445, N-[3-[(2-cyanocyclopentyl)carbamoyl]phenyl]-3-(4-cyano-2-methoxy-phenoxy)-5-methyl-6-(trifluoromethyl)pyridazine-4-carboxamide] |
| ≤ 0.02 | ≤ 0.02 | Cc1cc(C#N)ccc1Oc1nnc(C(F)(F)F)c(C)c1C(=O)Nc1cccc(S(C)(=O)=O)c1 [Compound 1465, 3-(4-cyano-2-methylphenoxy)-N-(3-methanesulfonylphenyl)-5-methyl-6-(trifluoromethyl)pyridazine-4-carboxamide] |
| 0.04 to 0.2 | 0.04 to 0.2 | Cc1cc(F)ccc1Oc1nnc(C2CC2)c(C)c1C(=O)Nc1cccc(S(C)(=N)=O)c1 (stereo not shown) [Compound 1433, 6-cyclopropyl-3-(4-fluoro-2-methyl-phenoxy)-5-methyl-N-[3-(methylsulfonimidoyl)phenyl]pyridazine-4-carboxamide] |
| 0.02 to 0.04 | 0.02 to 0.04 | COc1ccc(-c2nnc(Oc3ccc(C#N)cc3OC)c(C(=O)Nc3cccc([S@](C)(=N)=O)c3)c2C)cc1 [Compound 1535, 3-(4-cyano-2-methoxyphenoxy)-N-{3-[(R)-imino(methyl)oxo-λ^6-sulfanyl]phenyl}-6-(4-methoxyphenyl)-5-methylpyridazine-4-carboxamide] |
| 0.2 to 0.5 | 0.2 to 0.5 | NC(=O)c1cccc(NC(=O)c2cc(C(F)(F)F)cnc2Oc2ccc(C(F)F)nc2)c1 [Compound 1675] |
| 0.2 to 0.5 | 0.2 to 0.5 | COc1cc(C#N)ccc1Oc1nnc(C2=CCN(C)CC2)c(C)c1C(=O)Nc1cccc(S(C)(=N)=O)c1 (stereo not shown) [Compound 1555, 3-(4-cyano-2-methoxy-phenoxy)-5-methyl-6-(1-methyl-3,6-dihydro-2H-pyridin-4-yl)-N-[3-(methylsulfonimidoyl)phenyl]pyridazine-4-carboxamide] |
| 0.04 to 0.2 | 0.04 to 0.2 | CS(=O)(=O)c1cccc(NC(=O)c2cc(C(F)(F)F)cnc2OCC2CC2(F)F)c1 (stereo not shown) [Compound 1659] |
| 0.2 to 0.5 | 0.2 to 0.5 | Cc1cc(F)ccc1Oc1nncc(C)c1C(=O)Nc1cccc(S(C)(=N)=O)c1 (stereo not shown) [Compound 1553, 3-(4-fluoro-2-methyl-phenoxy)-5-methyl-N-[3-(methylsulfonimidoyl)phenyl]pyridazine-4-carboxamide] |
| 0.2 to 0.5 | 0.2 to 0.5 | NC(=O)c1cccc(NC(=O)c2cc(C(F)(F)F)cnc2OC2CC(C(F)(F)F)C2)c1 (mixture of isomers) [Compound 1667] |
| 0.2 to 0.5 | 0.2 to 0.5 | COc1cc(C#N)ccc1Oc1nnc(-c2cnc(C)s2)c(C)c1C(=O)Nc1cccc(S(C)(=N)=O)c1 (stereo not shown) [Compound 1449, 3-(4-cyano-2-methoxy-phenoxy)-5-methyl-N-[3-(methylsulfonimidoyl)phenyl]-6-(2-methylthiazol-5-yl)pyridazine-4-carboxamide] |
| ≤ 0.02 | ≤ 0.02 | Cc1c(Oc2nnc(C(F)(F)F)c(C)c2C(=O)Nc2cccc(S(C)(=N)=O)c2)ccc(Cl)c1F (single isomer, unassigned) [Compound 1487, 3-(4-chloro-3-fluoro-2-methyl-phenoxy)-5-methyl-N-[3-(methylsulfonimidoyl)phenyl]-6-(trifluoromethyl)pyridazine-4-carboxamide] |
| 0.02 to 0.04 | 0.02 to 0.04 | COc1c(Oc2ncc(Br)cc2C(=O)Nc2cccc(C(N)=O)c2)ccc(F)c1F [Compound 1680] |
| ≤ 0.02 | ≤ 0.02 | COc1cc(C#N)ccc1Oc1nnc(C(F)(F)F)c(C)c1C(=O)Nc1cccc(S(C)(=N)=O)c1 (stereo not shown) [Compound 25] |
| 0.2 to 0.5 | 0.2 to 0.5 | Cc1cc(F)ccc1Oc1nnc(C(F)(F)F)c(NC2CC2)c1C(=O)Nc1cccc([S@@](C)(=N)=O)c1 [Compound 1522, (S)-5-(cyclopropylamino)-3-(4-fluoro-2-methylphenoxy)-N-(3-(S-methylsulfonimidoyl)phenyl)-6-(trifluoromethyl)pyridazine-4-carboxamide] |
| ≤ 0.02 | ≤ 0.02 | COc1c(Oc2nnc(C(F)(F)F)c(C)c2C(=O)Nc2cccc(S(C)(=O)=O)c2)ccc(Cl)c1F [Compound 1552, 3-(4-chloro-3-fluoro-2-methoxy-phenoxy)-5-methyl-N-(3-methylsulfonylphenyl)-6-(trifluoromethyl)pyridazine-4-carboxamide] |
| 0.2 to 0.5 | 0.2 to 0.5 | NC(=O)c1ccc(NC(=O)c2cc(C(F)(F)F)cnc2OC2CC3C(C2)C3(F)F)cc1 (stereo not shown) [Compound 1673] |
| 0.02 to 0.04 | 0.04 to 0.2 | COc1cc(C#N)ccc1Oc1nc(C(F)(F)F)nc(C)c1C(=O)Nc1cccc(C(N)=O)c1 [Compound 1742, N-(3-carbamoylphenyl)-4-(4-cyano-2-methoxy-phenoxy)-6-methyl-2-(trifluoromethyl)pyrimidine-5-carboxamide] |
| 0.2 to 0.5 | 0.2 to 0.5 | N#CC1CC(Oc2ncc(C(F)(F)F)cc2C(=O)Nc2cccc(C(N)=O)c2)C1 (mixture of isomers) [Compound 1668] |

Source: patent US20240336574A1 (LATIGO BIOTHERAPEUTICS, INC., priority 2021, published 2024)
